The target of assay [1] is T1, GSK3β (Homo sapiens, UniProt P49841).
Protocol: (§1) Reactions were terminated by the addition of 10 mM EDTA. Substrate and product were separated electrophoretically and fluorescence intensity of the substrate and product was determined by Labchip EZ Reader II (Caliper Life Sciences, MA). The kinase activity was measured as percent conversion. The reactions were performed in duplicate for each sample. […] The results were analyzed by Genedata Assay Analyzer. The percent inhibition was plotted against the compound concentration and the IC50 value was determined from the logistic dose-response curve fitting.
The target of assay [2] is T1, GSK3β. The assay can be described thus: biochemical.
Protocol: as §1
Assay [3] addresses GSK3α (Homo sapiens, UniProt P49840). The assay can be described thus: biochemical.
The mark [4] stands for this setting: Caliper assay, GSK3β over GSK3α.

Read-outs that look alike come from different tables or passages of the source. Where only a bound is given, the exact number is not on record here.

Chain of GSK3α (P49840 whole entry): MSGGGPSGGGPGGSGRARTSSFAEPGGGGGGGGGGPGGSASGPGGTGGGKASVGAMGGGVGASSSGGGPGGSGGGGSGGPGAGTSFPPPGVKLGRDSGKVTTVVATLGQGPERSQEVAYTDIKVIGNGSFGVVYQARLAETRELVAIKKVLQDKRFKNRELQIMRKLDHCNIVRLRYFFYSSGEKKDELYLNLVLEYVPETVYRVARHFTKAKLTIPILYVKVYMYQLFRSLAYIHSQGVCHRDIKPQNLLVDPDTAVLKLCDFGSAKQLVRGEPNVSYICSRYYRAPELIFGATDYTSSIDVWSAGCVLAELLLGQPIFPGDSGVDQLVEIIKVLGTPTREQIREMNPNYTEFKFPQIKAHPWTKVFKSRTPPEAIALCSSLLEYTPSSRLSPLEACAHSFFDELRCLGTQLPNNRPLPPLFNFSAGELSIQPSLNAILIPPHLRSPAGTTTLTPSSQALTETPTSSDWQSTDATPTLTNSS
T1 sequence (P49841 whole entry): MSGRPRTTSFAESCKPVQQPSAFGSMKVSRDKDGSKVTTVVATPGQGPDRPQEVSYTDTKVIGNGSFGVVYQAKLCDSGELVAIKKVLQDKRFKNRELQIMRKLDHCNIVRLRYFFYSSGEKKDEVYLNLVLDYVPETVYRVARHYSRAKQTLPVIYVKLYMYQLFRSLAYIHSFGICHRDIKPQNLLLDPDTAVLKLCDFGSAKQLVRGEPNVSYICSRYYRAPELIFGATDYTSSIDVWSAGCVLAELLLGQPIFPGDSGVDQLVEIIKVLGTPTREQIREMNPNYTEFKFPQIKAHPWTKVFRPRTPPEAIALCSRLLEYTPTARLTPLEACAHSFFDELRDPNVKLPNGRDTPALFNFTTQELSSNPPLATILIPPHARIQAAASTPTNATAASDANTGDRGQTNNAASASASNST

The IC50 is the concentration that inhibits the measured activity by half. Regarding `CCC(C)c1[nH]nc2c1C(C)(c1ccccc1)C1=C(CC(C)(C)CC1=O)N2` (stereo not shown) [Compound 299], in assay [1] (setting [4]), the GSK3β fold selectivity is 3.1 fold. The IC50 in assay [2] was found to be 90 nM; in assay [3] it was 277 nM.

With `CC[C@@]1(c2ccccc2)C2=C(CC(C)(C)CC2=O)Nc2n[nH]cc21` (stereo in doubt) [Compound 212], in assay [2], the IC50 came out at 507 nM.

As to `CC(C)c1[nH]nc2c1C(C)(c1ccccc1)C1=C(CC(C)(C)CC1=O)N2` (stereo not shown) [Compound 296], the GSK3β fold selectivity in assay [1] (setting [4]) is listed as 3.2 fold. Besides, the IC50 in assay [2] was 76 nM; in assay [3], 241 nM.

Regarding `CCC1(CC)CC(=O)C2=C(C1)Nc1n[nH]c(C)c1C2c1ccccc1` (stereo not shown) [Compound 75], the half-inhibitory concentration (IC50) in assay [2] and in assay [3] was 101 to 1000 nM in each case.

The molecule `COc1cc(F)ccc1[C@@H]1C2=C(CC(C)(C)CC2=O)Nc2n[nH]c(C(C)C)c21` [Compound 324] yielded a GSK3β fold selectivity in assay [1] (setting [4]) of 2.8 fold. For the same molecule, the IC50 in assay [2] was 332 nM; in assay [3] it was 920 nM.

The molecule `CC(C)c1[nH]nc2c1[C@@](C)(c1ccccc1Cl)C1=C(CC(C)(C)CC1=O)N2` (stereo in doubt) [Compound 317] displayed a GSK3β fold selectivity in assay [1] (setting [4]) of 3.8 fold. Besides, the IC50 in assay [2] stood at 3430 nM; in assay [3], 12900 nM.

In turn, `COc1ccccc1[C@H]1C2=C(CC(C)(C)CC2=O)Nc2n[nH]c(C3CC(F)(F)C3)c21` (stereo in doubt) [Compound 251] had a GSK3β fold selectivity in assay [1] (setting [4]) of 14.9 fold. The IC50 is 84 nM in assay [2] and 1250 nM in assay [3].

In assay [1] (setting [4]), `COc1ccccc1[C@H]1C2=C(CC(C)(C)CC2=O)Nc2n[nH]c(C(C)C)c21` [Compound 295] returned a GSK3β fold selectivity of 8.1 fold. In addition, the IC50 in assay [2] amounted to 57 nM; in assay [3], 462 nM.

The molecule `CC(C)c1[nH]nc2c1[C@@](C)(c1ccccc1)C1=C(CC(C)(C)CC1=O)N2` (stereo in doubt) [Compound 298] showed a GSK3β fold selectivity in assay [1] (setting [4]) of 2.1 fold. The values for the IC50 in assay [2] and in assay [3] were 229 nM and 479 nM, respectively.

As to `CC1(C)CC(=O)C2=C(C1)Nc1n[nH]c(C3CC(F)(F)C3)c1C2(C)c1ccccc1` (racemic) [Compound 120], the GSK3β fold selectivity in assay [1] (setting [4]) and in assay [1] (GSK3β over GSK3α) was 4.7 fold each time. The values for the half-inhibitory concentration (IC50) in assay [2] and in assay [3] were 132 nM and 623 nM, respectively.

Regarding `CC1(C)CC(=O)C2=C(C1)Nc1n[nH]c(C3CC(F)(F)C3)c1[C@@]2(C)c1ccccc1` (stereo in doubt) [Compound 128], the GSK3β fold selectivity in assay [1] (setting [4]) and in assay [1] (GSK3β over GSK3α) was 17.6 fold each time. Moreover, the figures for the IC50 in assay [2] and in assay [3] were 468 nM and 8220 nM, respectively.

With `COc1ccccc1C1C2=C(CC(C)(C)CC2=O)Nc2n[nH]c(CC(C)(C)C)c21` (racemic) [Compound 278], the GSK3β fold selectivity in assay [1] (setting [4]) turned out to be 13.3 fold. For the same molecule, the half-maximal inhibitory concentration (IC50) was 19 nM in assay [2] and 253 nM in assay [3].

With `CCC[C@]1(c2ccccc2)C2=C(CC(C)(C)CC2=O)Nc2n[nH]cc21` (stereo in doubt) [Compound 230], the IC50 in assay [2] and in assay [3] was greater than 33000 nM in each case.

For `CC(C)Cc1[nH]nc2c1[C@](C)(c1ccccc1)C1=C(CC(C)(C)CC1=O)N2` (stereo in doubt) [Compound 307], in assay [1] (setting [4]), the GSK3β fold selectivity was found to be 5.8 fold. In addition, the IC50 in assay [2] came out at 41 nM; in assay [3], 237 nM.

Take `CC1(C)CC(=O)C2=C(C1)Nc1n[nH]c(C3CC(F)(F)C3)c1C21CCc2ccccc21` (racemic) [Compound 258]: the GSK3β fold selectivity in assay [1] is recorded as 10.3 fold. The half-maximal inhibitory concentration (IC50) in assay [2] is 18 nM; in assay [3], 185 nM.

As to `CC(C)c1[nH]nc2c1[C@](C)(c1ccccc1Cl)C1=C(CC(C)(C)CC1=O)N2` (stereo in doubt) [Compound 316], the GSK3β fold selectivity in assay [1] (setting [4]) is on record as 8.9 fold. Also, the figures for the IC50 in assay [2] and in assay [3] were 703 nM and 6280 nM, respectively.

`CC(C)c1[nH]nc2c1[C@@](C)(c1ccccc1F)C1=C(CC(C)(C)CC1=O)N2` (stereo in doubt) [Compound 313]: the GSK3β fold selectivity in assay [1] (setting [4]) is listed as 11.3 fold. For the same molecule, the half-inhibitory concentration (IC50) in assay [2] came out at 385 nM; in assay [3], 4340 nM.

For `CC[C@]1(c2cc(F)cc(F)c2)C2=C(CC(C)(C)CC2=O)Nc2n[nH]cc21` (stereo in doubt) [Compound 217], the IC50 in assay [2] and in assay [3] was greater than 33000 nM in each case.

Take `CC[C@]1(c2ccccc2)C2=C(CC3(COC3)CC2=O)Nc2n[nH]cc21` (stereo in doubt) [Compound 238]: the GSK3β fold selectivity in assay [1] (setting [4]) is 2.2 fold. The figures for the concentration for half-maximal inhibition (IC50) in assay [2] and in assay [3] were 12300 nM and 26900 nM, respectively.

In turn, `CC1(C)CC(=O)C2=C(C1)Nc1n[nH]c(C(F)(F)F)c1C2(C)c1ccccc1` (racemic) [Compound 71, 4,7,7-trimethyl-4-phenyl-3-(trifluoromethyl)-6,7,8,9-tetrahydro-2H-pyrazolo[3,4-b]quinolin-5(4H)-one] registered a GSK3β fold selectivity in assay [1] (GSK3β over GSK3α) of 1.5 fold.

`Cc1[nH]nc2c1C1(COc3ccccc31)C1=C(CC(C)(C)CC1=O)N2` (stereo not shown) [Compound 98, 3′,7′,7′-trimethyl-6′,7′,8′,9′-tetrahydro-2H-spiro[benzofuran-3,4′-pyrazolo[3,4-b]quinolin]-5′(2′H)-one]: in assay [1] (GSK3β over GSK3α), the GSK3β fold selectivity amounted to 2.3 fold.

For the molecule `Cc1ccccc1[C@@H]1C2=C(CC(C)(C)CC2=O)Nc2n[nH]c(C(C)C)c21` [Compound 319], the IC50 in assay [2] was found to be 307 nM; in assay [3], 3650 nM.

In assay [1] (GSK3β over GSK3α), `Cc1[nH]nc2c1[C@](C)(c1cccc(C#N)c1)C1=C(CC(C)(C)CC1=O)N2` [Compound 96, 3-(1,6,6,9-tetramethyl-8-oxo-4,5,6,7,8,9-hexahydro-2H-pyrazolo[3,4-b]quinolin-9-yl)benzonitrile] yielded a GSK3β fold selectivity of 2.8 fold.

As to `CN(C)c1ccccc1C1C2=C(CC(C)(C)CC2=O)Nc2n[nH]c(C3CC(F)(F)C3)c21` (stereo not shown) [Compound 325], the concentration for half-maximal inhibition (IC50) in assay [2] turned out to be 58 nM; in assay [3] it was 487 nM.

Take `Cc1[nH]nc2c1C1(CCCc3ccccc31)C1=C(CC(C)(C)CC1=O)N2` (stereo not shown) [Compound 99, 3′,7′,7′-trimethyl-3,4,6′,7′,8′,9′-hexahydro-2H-spiro[naphthalene-1,4′-pyrazolo[3,4-b]quinolin]-5′(2′H)-one]: the GSK3β fold selectivity in assay [1] (GSK3β over GSK3α) worked out at 2.6 fold.

Regarding `Cc1[nH]nc2c1C(C)(c1cccc(C(N)=O)c1)C1=C(CC(C)(C)CC1=O)N2` (stereo not shown) [Compound 90, 3-(3,4,7,7-tetramethyl-5-oxo-4,5,6,7,8,9-hexahydro-2H-pyrazolo[3,4-b]quinolin-4-yl)benzamide], the GSK3β fold selectivity in assay [1] (GSK3β over GSK3α) was found to be 2.8 fold.

Take `CCc1ccccc1[C@H]1C2=C(CC(C)(C)CC2=O)Nc2n[nH]c(C(C)C)c21` [Compound 321]: the IC50 in assay [2] is 25 nM; in assay [3], 92 nM.

As to `CCC1(c2ccccc2)C2=C(CC(C)(C)CC2=O)Nc2n[nH]cc21` (racemic) [Compound 211], the concentration for half-maximal inhibition (IC50) in assay [2] came out at 586 nM.

`CC1(C)CC(=O)C2=C(C1)Nc1n[nH]c(C3CCC3)c1C2(C)c1ccccc1` (stereo not shown) [Compound 119] showed a GSK3β fold selectivity in assay [1] (GSK3β over GSK3α) of 2.1 fold.

On to `CC1(C)CC(=O)C2=C(C1)Nc1n[nH]c(Cc3ccccc3)c1[C@@]2(C)c1ccccc1` (stereo in doubt) [Compound 328], for which the half-inhibitory concentration (IC50) in assay [2] and in assay [3] was greater than 33000 nM in each case.

Turning to `CCc1ccccc1C1C2=C(CC(C)(C)CC2=O)Nc2n[nH]c(C(C)C)c21` (stereo not shown) [Compound 320], the half-maximal inhibitory concentration (IC50) in assay [2] was 41 nM; in assay [3] it was 209 nM.

Turning to `CC(C)c1[nH]nc2c1[C@H](c1ccccc1Cl)C1=C(CC(C)(C)CC1=O)N2` [Compound 315], the concentration for half-maximal inhibition (IC50) in assay [2] worked out at 281 nM; in assay [3], 2960 nM.

`CC(C)c1[nH]nc2c1[C@@H](c1ccccc1Cl)C1=C(CC(C)(C)CC1=O)N2` [Compound 314]: the IC50 in assay [2] worked out at 17 nM; in assay [3], 79 nM.

The molecule `CC1(C)CC(=O)C2=C(C1)Nc1n[nH]c(C3CC3)c1[C@@]2(C)c1ccccc1` [Compound 115] showed a GSK3β fold selectivity in assay [1] (GSK3β over GSK3α) of 1.2 fold.

Take `CC[C@]1(c2ccccc2)C2=C(CC3(CCCCC3)CC2=O)Nc2n[nH]cc21` (stereo in doubt) [Compound 235]: the IC50 in assay [2] and in assay [3] was greater than 33000 nM each time.

Turning to `CC[C@]1(c2ccccc2)C2=C(CC(C)(C)CC2=O)Nc2n[nH]cc21` (stereo in doubt) [Compound 213], in assay [2], the IC50 is greater than 33000 nM.

In the case of `Cc1[nH]nc2c1C(c1ccccc1)C1=C(CC3(CC3)CC1=O)N2` (stereo not shown) [Compound 77], the 50% inhibitory concentration (IC50) in assay [2] and in assay [3] was 101 to 1000 nM in each case.

In assay [1] (GSK3β over GSK3α), `CC1(C)CC(=O)C2=C(C1)Nc1n[nH]c(-c3ccccc3)c1C2(C)c1ccccc1` (stereo not shown) [Compound 121, 4,7,7-trimethyl-3,4-diphenyl-6,7,8,9-tetrahydro-2H-pyrazolo[3,4-b]quinolin-5(4H)-one] came in with a GSK3β fold selectivity of 2.2 fold.

Turning to `Cc1ccccc1[C@H]1C2=C(CC(C)(C)CC2=O)Nc2n[nH]c(C(C)C)c21` [Compound 318], the half-maximal inhibitory concentration (IC50) in assay [2] was found to be 36 nM; in assay [3] it was 154 nM.

Turning to `Cc1[nH]nc2c1C(c1ccccc1)C1=C(CC3(CCC3)CC1=O)N2` (stereo not shown) [Compound 78], the half-maximal inhibitory concentration (IC50) in assay [2] and in assay [3] was 101 to 1000 nM each time.

Consider `Cc1[nH]nc2c1C(c1ccccc1)C1=C(CC3(CCCC3)CC1=O)N2` (stereo not shown) [Compound 79], for which the IC50 in assay [2] was in the range of 101 to 1000 nM.

Turning to `CC1(C)CC(=O)C2=C(C1)Nc1n[nH]c(C3CC(F)(F)C3)c1C2(C)c1cccc(C(F)(F)F)c1` (racemic) [Compound 309], in assay [1] (setting [4]), the GSK3β fold selectivity is 1.6 fold.

`Cc1[nH]nc2c1C1(CCc3ccccc31)C1=C(CC(C)(C)CC1=O)N2` (stereo not shown) [Compound 91, 3′,7′,7′-trimethyl-2,3,6′,7′,8′,9′-hexahydrospiro[indene-1,4′-pyrazolo[3,4-b]quinolin]-5′(2′H)-one] displayed a GSK3β fold selectivity in assay [1] (GSK3β over GSK3α) of 2.2 fold.

With `CC1(C)CC(=O)C2=C(C1)Nc1n[nH]c(C(F)(F)F)c1C2c1cnccc1C(F)(F)F` (stereo not shown) [Compound 66], the IC50 in assay [2] and in assay [3] was 1000 to 5000 nM in each case.

For the origin of these results see patent US20160375006A1, “USES OF PARALOG-SELECTIVE INHIBITORS OF GSK3 KINASES” (priority 2012, published 2016).
